Results taken from US20170166879A1, “NOVEL (R)-HYDROXYNITRILE LYASE” (PUBLIC UNIVERSITY CORPORATION TOYAMA PREFECTURAL UNIVERSITY, priority 2014, published 2017).
Read-outs that look alike come from different tables or passages of the source. Non-standard residues stand in square brackets, D forms with d. Residues, ends and D or L forms follow the SMILES beside them. *: point of attachment. Sta = CC(C)C[C@H](N)[C@@H](O)CC(=O)O; Isovaleryl = CC(C)CC(=O)*

Experiments:
[1] = molecular target: T1, R-ChHNL (Chamberlinius hualienensis, UniProt A0A0H5BR52); assay: Dynamic (kinetic) analysis, racemic mandelonitrile as substrate (decomposition reaction); type: biochemical
[2] = molecular target: T1, R-ChHNL; assay: Dynamic (kinetic) analysis, aldehyde substrates, Hanes-Woolf plot
[3] = molecular target: T1, R-ChHNL; assay: Search of inhibitor of R-ChHNL activity (remaining activity); type: biochemical
[4] = tested on: S-HNL derived from Baliospermum; conditions: cited from earlier work
[5] = molecular target: T1, R-ChHNL; assay: Substrate identification by cyanohydrin synthetic reaction; type: biochemical; conditions: 50 mM carbonyl compound, 100 mM KCN, pH 4.2, 25° C., 5 minutes (aliphatic: 2 hours)
[6] = tested on: Cc1cccc(C=O)c1; assay: purified protein, by the assay type; conditions: other: aldehydes other than benzaldehyde; condition similar to the above-described condition; pH 5.2
[7] = tested on: Cc1ccc(C=O)cc1; assay: purified protein, by the assay type; conditions: other: aldehydes other than benzaldehyde; condition similar to the above-described condition; pH 5.2
[8] = tested on: O=Cc1cccc2ccccc12; assay: purified protein, by the assay type; conditions: other: aldehydes other than benzaldehyde; condition similar to the above-described condition; pH 5.2
[9] = Decomposition reaction from racemic mandelonitrile to benzaldehyde, absorbance at 280 nm; type: biochemical, Chamberlinius hualienensis; conditions: purified enzyme; decomposition: 2 mM racemic mandelonitrile, pH 5.0-5.5, 22° C.
[10] = type: biochemical, Chamberlinius hualienensis
Experimental: The stability to temperature was measured by performing the reaction in a reaction mixture of pH 7.0 at the temperature range of 0 to 70° C. for 1 hour. In addition, the reaction was similarly performed except that the reaction temperature was adjusted to 20° C. and pH was changed in the range of 3 to 11. In the reaction, citrate-phosphate buffer was used when pH was 3 to 8, and glycine-NaOH buffer was used when pH was 8 to 11. The enzyme activity was measured according to the method described in Dadashipour et al. (2011). […] In addition, the relation between the reaction temperature and the remaining activity and the relation between the reaction pH and the remaining activity of both R-ChHNLs are respectively shown in FIG. 7(A) and FIG. 7(B).

[11] = aldehydes other than benzaldehyde, condition similar to the above-described condition
[12] = aldehydes other than benzaldehyde, relative to benzaldehyde at pH 5.2 and 22° C.
[13] = 10 mM, pH 7.0, 20° C., 60 minutes
[14] = concentration not given (1 mM or 0.1 mM), pH 7.0, 20° C., 60 minutes
[15] = 1 mM, pH 7.0, 20° C., 60 minutes
[16] = 1 mM, pH 7.0, 20° C., 60 minutes, read-out: Remaining activity
[17] = 10 mM, pH 7.0, 20° C., 60 minutes, read-out: Remaining activity
[18] = 100 μg/mL, pH 7.0, 20° C., 60 minutes

N#CC(O)c1ccccc1 (racemic) [racemic mandelonitrile, mandelonitrile]
Km [1]: 5.5 mM
Vmax [1]: 2819 µmol/min/mg
kcat [1]: 1168 s⁻¹
max S.A. (specific activity) [1]: 1896 U/mg

O=Cc1cccc2ccccc12 [1-naphthalenecarboxaldehyde]
max S.A. (specific activity) [2, 11]: 326 U/mg
relative S.A. [2, 12]: 4.4

Cc1ccc(C=O)c(C)c1 [2,4-dimethylbenzaldehyde]
Km [2, 11]: 0.94 mM
Vmax [2, 11]: 632.2 µmol/min/mg
kcat [2, 11]: 261.8 s⁻¹
max S.A. (specific activity) [2, 11]: 654 U/mg
relative S.A. [2, 12]: 8.8

OCCS [2-mercaptoethanol]
Remaining activity [3, 13]: 95%

Cc1ccccc1C=O [2-methylbenzaldehyde]
Km [2, 11]: 3.1 mM
Vmax [2, 11]: 2564.9 µmol/min/mg
kcat [2, 11]: 1062.3 s⁻¹
max S.A. (specific activity) [2, 11]: 2395 U/mg
relative S.A. [2, 12]: 32.2

O=Cc1cccs1 [2-thiophenecarboxaldehyde]
Km [2, 11]: 18.7 mM
Vmax [2, 11]: 3522 µmol/min/mg
kcat [2, 11]: 1459 s⁻¹
max S.A. (specific activity) [2, 11]: 2403 U/mg
relative S.A. [2, 12]: 32.3

COc1cccc(C=O)c1 [3-methoxybenzaldehyde]
Km [2, 11]: 5.7 mM
Vmax [2, 11]: 3228.2 µmol/min/mg
kcat [2, 11]: 1337 s⁻¹
max S.A. (specific activity) [2, 11]: 3326 U/mg
relative S.A. [2, 12]: 44.7

Cc1cccc(C=O)c1 [3-methylbenzaldehyde]
max S.A. (specific activity) [2, 11]: 12657 U/mg
relative S.A. [2, 12]: 170.3

O=Cc1ccc(Br)cc1 [4-bromobenzaldehyde]
Km [2, 11]: 9.5 mM
Vmax [2, 11]: 19940 µmol/min/mg
kcat [2, 11]: 8259 s⁻¹
max S.A. (specific activity) [2, 11]: 17375 U/mg
relative S.A. [2, 12]: 233.8

COc1ccc(C=O)cc1 [4-methoxybenzaldehyde]
Km [2, 11]: 6.7 mM
Vmax [2, 11]: 7482 µmol/min/mg
kcat [2, 11]: 3099 s⁻¹
max S.A. (specific activity) [2, 11]: 6849 U/mg
relative S.A. [2, 12]: 92.1

Cc1ccc(C=O)cc1 [4-methylbenzaldehyde]
max S.A. (specific activity) [2, 11]: 11072 U/mg
relative S.A. [2, 12]: 149.0

O=[N+]([O-])[O-].[Ag+] [AgNO3]
Remaining activity [3, 14]: 68%

[Cl][Cd][Cl] [CdCl2]
Remaining activity [3, 14]: 99%

[Cl-].[Cl-].[Co+2] [CoCl2]
Remaining activity ([3]; pH 7): 95%

[Cl][Cr]([Cl])[Cl] [CrCl3]
Remaining activity [3, 14]: 88%

O=S(=O)([O-])[O-].[Cu+2] [CuSO4]
Remaining activity [3, 14]: 100%

O[C@@H](CS)[C@@H](O)CS [DTT]
Remaining activity [3, 14]: 100%

O=C(O)CN(CCN(CC(=O)O)CC(=O)O)CC(=O)O [EDTA]
Remaining activity [3, 13]: 100%

[Cl][Fe]([Cl])[Cl] [FeCl3]
Remaining activity [3, 14]: 100%

[Cl][Hg][Cl] [HgCl2]
Remaining activity [3, 14]: 64%

O=S(=O)([O-])[O-].[Mn+2] [MnSO4]
Remaining activity [3, 14]: 106%

CCN1C(=O)C=CC1=O [N-ethylmaleimide]
Remaining activity [3, 14]: 100%

[Cl][Ni][Cl] [NiCl2]
Remaining activity [3, 14]: 93%

[Cl][Pb][Cl] [PbCl2]
Remaining activity ([3]; 0.1 mM, pH 7.0, 20° C., 60 minutes): 98%
Remaining activity [3, 15]: 77%

O=S(=O)([O-])[O-].[Zn+2] [ZnSO4]
Remaining activity [3, 14]: 100%

N.N#CS [ammonium thiocyanate]
inhibition of S-HNL [4]: strongly inhibits

CCC1(CC)C(=O)NC(=O)NC1=O [barbital sodium]
Remaining activity [3, 14]: 93%

O=Cc1ccccc1 [benzaldehyde]
activity of R-ChHNL on the carbonyl compound as substrate [5]: recognizes
max S.A. (specific activity) ([2]; pH5.2, 22° C.): 7433 U/mg
relative S.A. ([2]; pH5.2, 22° C., the reference case (100)): 100
max S.A. (specific activity) ([2]; pH5.8, 35° C.): 17141 U/mg
relative S.A. ([2]; pH5.8, 35° C., relative to benzaldehyde at pH 5.2 and 22° C.): 230.6

CCOC(=O)OC(=O)OCC [diethylpyrocarbonate]
remaining activity at 1000 µM [3, 16]: 100%
remaining activity at 10000 µM [3, 17]: 79%

O=C1NC(=O)C(c2ccccc2)(c2ccccc2)N1 [diphenylhydantoin]
Remaining activity [3, 14]: 100%

O=C(O)c1cc(SSc2ccc([N+](=O)[O-])c(C(=O)O)c2)ccc1[N+](=O)[O-] [dithionitrobenzoic acid]
Remaining activity [3, 14]: 97%

NN [hydrazine]
Remaining activity [3, 14]: 100%

NC(=O)CI [iodoacetamide]
remaining activity at 1000 µM [3, 16]: 75%
remaining activity at 10000 µM [3, 17]: 28%
inhibition of the activity of R-ChHNL ([3]; concentration increased to 10 mM): inhibit

O=C(O)CI [iodoacetic acid]
inhibition of the activity of R-ChHNL [3]: inhibit
remaining activity at 1000 µM ([3]; pH 7): 52%
remaining activity at 10000 µM ([3]; pH 7): 18%

CC(=O)N[C@@H](CC(C)C)C(=O)N[C@@H](CC(C)C)C(=O)N[C@H](C=O)CCCNC(=N)N [leupeptin]
remaining activity at 100 µg/mL [3, 18]: 86%

O=C(O)c1cc[c]([Hg][Cl])cc1 [p-chloromercuribenzoic acid]
Remaining activity [3, 14]: 100%

CC(C)CC(=O)N[C@H](C(=O)N[C@H](C(=O)N[C@@H](CC(C)C)[C@@H](O)CC(=O)N[C@@H](C)C(=O)N[C@@H](CC(C)C)[C@@H](O)CC(=O)O)C(C)C)C(C)C [pepstatin A] (Isovaleryl-VV[Sta]A[Sta]-OH)
Remaining activity [3, 18]: 89%

O=S(=O)(F)Cc1ccccc1 [phenylmethylsulfonyl fluoride (PMSF), phenylmethylsulfonyl fluoride]
Remaining activity [3, 15]: 91%
Remaining activity [3, 13]: 60%

NC(=S)Nc1ccccc1 [phenylthiourea]
Remaining activity [3, 14]: 100%

O=Cc1ccc2c(c1)OCO2 [piperonal]
Km [2, 11]: 5.6 mM
Vmax [2, 11]: 3006.6 µmol/min/mg
kcat [2, 11]: 1245.2 s⁻¹
max S.A. (specific activity) [2, 11]: 2748 U/mg
relative S.A. [2, 12]: 37.0

N[C@@H](CCC(=O)N[C@@H](CS)C(=O)NCC(=O)O)C(=O)O [reduced glutathione]
Remaining activity ([3]; pH 7): 93%

R-ChHNL (Chamberlinius hualienensis)
Km [6]: 9.9 mM
Vmax [6]: 14000 µmol/min/mg
kcat [6]: 5800 s⁻¹
kcat/Km [6]: 584000 M⁻¹ s⁻¹
Km [7]: 5.0 mM
Vmax [7]: 11900 µmol/min/mg
kcat [7]: 4940 s⁻¹
kcat/Km [7]: 989000 M⁻¹ s⁻¹
Km [8]: 0.65 mM
Vmax [8]: 313 µmol/min/mg
kcat [8]: 130 s⁻¹
kcat/Km [8]: 199000 M⁻¹ s⁻¹

R-ChHNL: (R)-hydroxynitrile lyase purified from Chamberlinius hualienensis, amino acid sequence SEQ ID NO: 3, homodimer
activity in cyanohydrin synthesis direction relative to activity in cyanohydrin decomposition reaction [9]: 2.6 times
stability to pH (remaining activity) [10]: stability in broad pH range
pH of maximum activity ([10]; 20° C., pH 3 to 11, FIG. 5): 5.8
activity after heating at 60° C. ([10]; 60° C. for 1 hour or longer, FIG. 6): maintained
activity maintained after heating at 75° C. ([10]; 75° C. for 1 hour): 20%
optimum temperature ([10]; FIG. 6): 35 °
temperature at which high activity is exhibited ([10]; FIG. 6): ≤ 60 °C
activity at pH 4 as share of maximum activity value ([10]; pH 4, FIG. 5): about 10%

avidin: avidin, listed as biotin reagent
Remaining activity [3, 18]: 96%

oxidized glutathione
Remaining activity ([3]; 0.5 mM, pH 7.0, 20° C., 60 minutes): 95%
